Data reported in the supplement of paper PMC10307832.

Assays:
Test in all cases: relative viability (nuclei count vs DMSO), 5 days (fraction); higher = more cells survive
AZD1208 + Pictilisib = compound: N[C@@H]1CCCN(c2c(/C=C3\SC(=O)NC3=O)cccc2-c2ccccc2)C1 [AZD1208] + CS(=O)(=O)N1CCN(Cc2cc3nc(-c4cccc5[nH]ncc45)nc(N4CCOCC4)c3s2)CC1 [Pictilisib] (partner 1 µM)
Summary of the method: (§1)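 Each reported value is a median over duplicate plates. It expresses relative viability: treated-well nuclei count divided by vehicle-well nuclei count. Lung cancer cell lines in 1536-well plates were dosed by pin tool a day after seeding, alone with one drug or with a fixed anchor-drug dose plus five library-drug doses (not always all listed) in √10 steps, and nuclei were counted after 5 days.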

AZD1208 + Trametinib = compound: N[C@@H]1CCCN(c2c(/C=C3\SC(=O)NC3=O)cccc2-c2ccccc2)C1 [AZD1208] + CC(=O)Nc1cccc(-n2c(=O)n(C3CC3)c(=O)c3c(Nc4ccc(I)cc4F)n(C)c(=O)c(C)c32)c1 [Trametinib] (partner 0.02 µM)
Summary of the method: as §1

XMD14-99 + Palbociclib = compound: CN1CCN(CC1)C2=CC(=C(C=C2)NC3=NC(=C(S3)C(=O)C4=C(C=CC=C4Cl)Cl)N)OC [XMD14-99] + CC(=O)c1c(C)c2cnc(Nc3ccc(N4CCNCC4)cn3)nc2n(C2CCCC2)c1=O [Palbociclib] (partner 0.5 µM)
Summary of the method: as §1

AZD1208 + Palbociclib = compound: N[C@@H]1CCCN(c2c(/C=C3\SC(=O)NC3=O)cccc2-c2ccccc2)C1 [AZD1208] + CC(=O)c1c(C)c2cnc(Nc3ccc(N4CCNCC4)cn3)nc2n(C2CCCC2)c1=O [Palbociclib] (partner 0.5 µM)
Summary of the method: as §1

Cell Line	relative viability (AZD1208 + Pictilisib; first compound 0.08 µM)	relative viability (AZD1208 + Pictilisib; first compound 0.253 µM)	relative viability (AZD1208 + Pictilisib; first compound 0.8 µM)	relative viability (AZD1208 + Pictilisib; first compound 2.53 µM)	relative viability (AZD1208 + Pictilisib; first compound 8 µM)	relative viability (AZD1208 + Trametinib; first compound 0.08 µM)	relative viability (AZD1208 + Trametinib; first compound 0.253 µM)	relative viability (AZD1208 + Trametinib; first compound 0.8 µM)	relative viability (AZD1208 + Trametinib; first compound 2.53 µM)	relative viability (AZD1208 + Trametinib; first compound 8 µM)	relative viability (XMD14-99 + Palbociclib; first compound 0.08 µM)	relative viability (XMD14-99 + Palbociclib; first compound 0.8 µM)	relative viability (XMD14-99 + Palbociclib; first compound 2.53 µM)	relative viability (XMD14-99 + Palbociclib; first compound 8 µM)	relative viability (AZD1208 + Palbociclib; first compound 0.08 µM)	relative viability (AZD1208 + Palbociclib; first compound 0.253 µM)	relative viability (AZD1208 + Palbociclib; first compound 0.8 µM)	relative viability (AZD1208 + Palbociclib; first compound 2.53 µM)	relative viability (AZD1208 + Palbociclib; first compound 8 µM)
NCI-H1650	0.529	0.575	0.434	0.395	0.41	0.575	0.667	0.536	0.517	0.537	0.389	0.328	0.345	0.306	0.331	0.401	0.311	0.323	0.35
NCI-H1651	0.395	0.556	0.394	0.38	0.408	0.87	0.81		0.742	0.746	0.535	0.535	0.535	0.522	0.527	0.535		0.473	0.459
NCI-H1666	0.359	0.553	0.353	0.309	0.374	0.764	0.907	0.687	0.667	0.725	0.626	0.564	0.63	0.666	0.62	0.672	0.607	0.605	0.672
NCI-H1734	0.393	0.373	0.347	0.343	0.293	0.659	0.583	0.535	0.525	0.434	0.355	0.338	0.379	0.355	0.312	0.32	0.313	0.325	0.255
NCI-H1755	0.377	0.441	0.368	0.326	0.283	0.755	0.841	0.779	0.705	0.647	0.477	0.458	0.474	0.476	0.439	0.459	0.437	0.458	0.385
NCI-H1792	0.255	0.272	0.258	0.218	0.199	0.424	0.368		0.312	0.306	0.64	0.697	0.631	0.598	0.697	0.663	0.616	0.587	0.554
NCI-H1793	0.362	0.212	0.257	0.385	0.276	0.356	0.566	0.33	0.473	0.342	0.286	0.316	0.314	0.284	0.293	0.305	0.273	0.304	0.288
NCI-H1915	0.874	0.899	0.832	0.849	0.84	0.271	0.288	0.247	0.277	0.232	0.555	0.552	0.516	0.517	0.504	0.435	0.486	0.474	0.455
NCI-H1944	0.33	0.345	0.306	0.298	0.277	0.402	0.433	0.359	0.328	0.283	0.32	0.36	0.328	0.28	0.314	0.304	0.295	0.311	0.251
NCI-H1975	0.285	0.252	0.242	0.28	0.238	0.304	0.341	0.283	0.36	0.249	0.597	0.614	0.618	0.448	0.56	0.686	0.535	0.591	0.403
NCI-H1993		0.878	0.692	0.807	0.869	0.496	0.515	0.447	0.477	0.376	0.7	0.682	0.533	0.625	0.595	0.578	0.439	0.544	0.432
NCI-H2009	0.725	0.811	0.75	0.553	0.714	0.264	0.249	0.256	0.224	0.207	0.358	0.319	0.26	0.236	0.196	0.202	0.221	0.208	0.181
NCI-H2023	0.193	0.223	0.203	0.183	0.209	0.601	0.55	0.416	0.506	0.394	0.342	0.409	0.374	0.264	0.34	0.39	0.333	0.373	0.332
NCI-H2085	0.418	0.459	0.36	0.43	0.564	0.55	0.475	0.558	0.446	0.531	0.453	0.447	0.462	0.41	0.462	0.473	0.52	0.482	0.474
NCI-H2087	0.665	0.842	0.654	0.561	0.732	0.219	0.167	0.159	0.227	0.193	0.198	0.279	0.236	0.246	0.257	0.192	0.276	0.241	0.219
NCI-H2126	0.437	0.476	0.436	0.424	0.441	0.576	0.524	0.498	0.467	0.434	0.326	0.337	0.37	0.362	0.363	0.362	0.349	0.33	0.382
NCI-H2170	0.319	0.263	0.254	0.213	0.224	0.966	1	0.869	0.868	0.57	0.426	0.4	0.425	0.395	0.401	0.455	0.368	0.357	0.247
